Key:
hERG = target: T1, hERG (Homo sapiens, UniProt Q12809); assay: in vitro hERG assay, standard protocol; assay type: cell-based; details: read-out: 1
T1 construct: gene KCNH2; in vitro hERG assay, standard protocol
Source text: in vitro hERG assay, standard protocol on hERG

CAMK2A = CAMK2A (Homo sapiens, UniProt Q9UQM7); assay: biochemical; parameters: species or system HEK293/K-562/placenta mixed human extract; Kinobeads chemoproteomic competition binding, quantified by TMT LC-MS/MS, dose response up to 20 uM
MAPK8 = MAPK8 (Homo sapiens, UniProt P45983); assay: biochemical; parameters: species or system HEK293/K-562/placenta mixed human extract; Kinobeads chemoproteomic competition binding, quantified by TMT LC-MS/MS, dose response up to 20 uM
EPHB1 = EPHB1 (Homo sapiens, UniProt P54762); assay: biochemical; parameters: species or system HEK293/K-562/placenta mixed human extract; Kinobeads chemoproteomic competition binding, quantified by TMT LC-MS/MS, dose response up to 20 uM
Sequence of EPHB1 (P54762 whole entry): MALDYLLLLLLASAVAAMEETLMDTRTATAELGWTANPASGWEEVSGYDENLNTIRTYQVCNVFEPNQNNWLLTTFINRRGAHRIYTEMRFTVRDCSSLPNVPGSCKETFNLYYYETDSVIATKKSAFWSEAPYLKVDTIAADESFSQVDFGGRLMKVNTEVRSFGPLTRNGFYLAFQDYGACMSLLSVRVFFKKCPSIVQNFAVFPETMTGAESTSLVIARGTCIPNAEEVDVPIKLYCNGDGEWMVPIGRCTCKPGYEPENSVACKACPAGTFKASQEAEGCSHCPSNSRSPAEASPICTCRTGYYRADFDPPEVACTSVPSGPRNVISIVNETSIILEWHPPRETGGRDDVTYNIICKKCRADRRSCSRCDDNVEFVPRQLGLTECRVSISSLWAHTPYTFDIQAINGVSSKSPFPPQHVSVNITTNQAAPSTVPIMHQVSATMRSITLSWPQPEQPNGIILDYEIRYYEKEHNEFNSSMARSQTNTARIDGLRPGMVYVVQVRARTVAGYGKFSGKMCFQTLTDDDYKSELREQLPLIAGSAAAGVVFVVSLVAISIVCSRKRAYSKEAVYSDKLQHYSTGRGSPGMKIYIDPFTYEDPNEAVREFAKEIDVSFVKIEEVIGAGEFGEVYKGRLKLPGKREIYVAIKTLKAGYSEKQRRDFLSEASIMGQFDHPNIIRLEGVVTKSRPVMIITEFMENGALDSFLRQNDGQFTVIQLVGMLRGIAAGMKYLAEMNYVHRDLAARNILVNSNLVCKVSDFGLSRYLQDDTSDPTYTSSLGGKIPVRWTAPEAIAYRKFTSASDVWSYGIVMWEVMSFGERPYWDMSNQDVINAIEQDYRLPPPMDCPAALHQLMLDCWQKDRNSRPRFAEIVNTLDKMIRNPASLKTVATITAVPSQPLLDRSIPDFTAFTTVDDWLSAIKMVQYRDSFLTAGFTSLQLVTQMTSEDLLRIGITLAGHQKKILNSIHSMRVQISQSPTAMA

HIPK3 = HIPK3 (Homo sapiens, UniProt Q9H422); assay: biochemical; parameters: species or system HEK293/K-562/placenta mixed human extract; Kinobeads chemoproteomic competition binding, quantified by TMT LC-MS/MS, dose response up to 20 uM
NUAK2 = NUAK2 (Homo sapiens, UniProt Q9H093); assay: biochemical; parameters: species or system HEK293/K-562/placenta mixed human extract; Kinobeads chemoproteomic competition binding, quantified by TMT LC-MS/MS, dose response up to 20 uM
Sequence of NUAK2 (Q9H093 whole entry): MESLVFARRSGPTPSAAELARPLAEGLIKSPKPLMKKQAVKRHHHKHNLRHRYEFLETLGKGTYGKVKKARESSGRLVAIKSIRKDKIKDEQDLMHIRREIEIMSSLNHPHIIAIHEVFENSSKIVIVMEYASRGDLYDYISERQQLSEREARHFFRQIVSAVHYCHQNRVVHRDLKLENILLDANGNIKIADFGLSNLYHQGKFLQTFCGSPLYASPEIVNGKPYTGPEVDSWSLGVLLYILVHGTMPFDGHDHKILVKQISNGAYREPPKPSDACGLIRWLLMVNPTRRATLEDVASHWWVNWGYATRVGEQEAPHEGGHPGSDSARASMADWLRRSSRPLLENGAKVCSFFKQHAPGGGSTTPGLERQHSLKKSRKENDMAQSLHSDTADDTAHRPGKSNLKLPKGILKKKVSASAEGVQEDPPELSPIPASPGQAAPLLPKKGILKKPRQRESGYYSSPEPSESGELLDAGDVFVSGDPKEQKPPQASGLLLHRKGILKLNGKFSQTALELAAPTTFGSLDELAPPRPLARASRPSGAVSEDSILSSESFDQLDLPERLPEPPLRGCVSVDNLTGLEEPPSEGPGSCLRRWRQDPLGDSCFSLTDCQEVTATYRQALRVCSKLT

CDC42BPB = CDC42BPB (Homo sapiens, UniProt Q9Y5S2); assay: biochemical; parameters: species or system HEK293/K-562/placenta mixed human extract; Kinobeads chemoproteomic competition binding, quantified by TMT LC-MS/MS, dose response up to 20 uM
Sequence of CDC42BPB (Q9Y5S2 whole entry): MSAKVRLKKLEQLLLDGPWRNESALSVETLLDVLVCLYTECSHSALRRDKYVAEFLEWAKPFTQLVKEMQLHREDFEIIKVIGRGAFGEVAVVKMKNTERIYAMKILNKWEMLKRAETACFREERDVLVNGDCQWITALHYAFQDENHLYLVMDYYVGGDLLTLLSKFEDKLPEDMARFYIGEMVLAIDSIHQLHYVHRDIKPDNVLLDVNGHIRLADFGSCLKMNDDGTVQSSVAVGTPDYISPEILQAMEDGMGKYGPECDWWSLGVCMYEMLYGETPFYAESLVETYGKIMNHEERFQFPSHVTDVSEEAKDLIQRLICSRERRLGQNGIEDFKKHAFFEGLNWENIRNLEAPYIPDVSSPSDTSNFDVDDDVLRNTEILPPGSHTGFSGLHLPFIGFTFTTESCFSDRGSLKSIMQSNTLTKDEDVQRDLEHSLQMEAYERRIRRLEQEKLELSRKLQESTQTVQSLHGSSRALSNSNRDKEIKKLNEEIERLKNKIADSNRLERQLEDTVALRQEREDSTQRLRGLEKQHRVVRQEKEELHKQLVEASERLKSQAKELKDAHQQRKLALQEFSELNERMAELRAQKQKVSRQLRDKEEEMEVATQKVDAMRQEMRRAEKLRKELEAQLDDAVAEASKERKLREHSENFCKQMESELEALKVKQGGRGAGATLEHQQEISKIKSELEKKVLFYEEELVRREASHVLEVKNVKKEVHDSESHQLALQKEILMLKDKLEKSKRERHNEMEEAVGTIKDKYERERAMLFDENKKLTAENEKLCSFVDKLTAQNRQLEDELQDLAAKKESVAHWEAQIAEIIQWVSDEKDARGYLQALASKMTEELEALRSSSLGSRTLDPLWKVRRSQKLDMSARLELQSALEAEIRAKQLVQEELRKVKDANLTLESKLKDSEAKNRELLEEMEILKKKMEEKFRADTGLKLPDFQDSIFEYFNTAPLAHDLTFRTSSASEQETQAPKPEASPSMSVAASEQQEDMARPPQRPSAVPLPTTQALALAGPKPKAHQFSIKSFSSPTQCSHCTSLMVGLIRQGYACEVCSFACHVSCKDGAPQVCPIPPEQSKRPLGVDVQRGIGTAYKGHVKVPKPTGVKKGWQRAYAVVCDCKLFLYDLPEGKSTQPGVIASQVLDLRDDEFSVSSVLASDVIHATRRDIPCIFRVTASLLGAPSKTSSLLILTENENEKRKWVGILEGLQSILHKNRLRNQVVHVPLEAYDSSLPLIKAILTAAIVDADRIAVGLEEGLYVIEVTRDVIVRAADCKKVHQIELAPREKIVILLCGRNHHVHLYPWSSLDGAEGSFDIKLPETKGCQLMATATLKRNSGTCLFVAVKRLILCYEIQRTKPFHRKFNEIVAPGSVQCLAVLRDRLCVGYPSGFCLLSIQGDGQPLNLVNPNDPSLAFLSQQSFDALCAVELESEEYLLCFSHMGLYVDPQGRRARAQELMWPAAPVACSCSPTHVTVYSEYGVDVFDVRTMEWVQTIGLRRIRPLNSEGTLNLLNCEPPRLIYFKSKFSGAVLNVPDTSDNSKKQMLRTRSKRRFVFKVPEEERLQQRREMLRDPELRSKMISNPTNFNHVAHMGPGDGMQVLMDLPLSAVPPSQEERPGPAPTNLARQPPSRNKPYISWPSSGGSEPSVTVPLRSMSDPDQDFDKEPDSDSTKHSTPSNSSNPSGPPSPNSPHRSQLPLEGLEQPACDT

FRK = FRK (Homo sapiens, UniProt P42685); assay: biochemical; parameters: species or system HEK293/K-562/placenta mixed human extract; Kinobeads chemoproteomic competition binding, quantified by TMT LC-MS/MS, dose response up to 20 uM
MARK4 = MARK4 (Homo sapiens, UniProt Q96L34); assay: biochemical; parameters: species or system HEK293/K-562/placenta mixed human extract; Kinobeads chemoproteomic competition binding, quantified by TMT LC-MS/MS, dose response up to 20 uM
Sequence of MARK4 (Q96L34 whole entry): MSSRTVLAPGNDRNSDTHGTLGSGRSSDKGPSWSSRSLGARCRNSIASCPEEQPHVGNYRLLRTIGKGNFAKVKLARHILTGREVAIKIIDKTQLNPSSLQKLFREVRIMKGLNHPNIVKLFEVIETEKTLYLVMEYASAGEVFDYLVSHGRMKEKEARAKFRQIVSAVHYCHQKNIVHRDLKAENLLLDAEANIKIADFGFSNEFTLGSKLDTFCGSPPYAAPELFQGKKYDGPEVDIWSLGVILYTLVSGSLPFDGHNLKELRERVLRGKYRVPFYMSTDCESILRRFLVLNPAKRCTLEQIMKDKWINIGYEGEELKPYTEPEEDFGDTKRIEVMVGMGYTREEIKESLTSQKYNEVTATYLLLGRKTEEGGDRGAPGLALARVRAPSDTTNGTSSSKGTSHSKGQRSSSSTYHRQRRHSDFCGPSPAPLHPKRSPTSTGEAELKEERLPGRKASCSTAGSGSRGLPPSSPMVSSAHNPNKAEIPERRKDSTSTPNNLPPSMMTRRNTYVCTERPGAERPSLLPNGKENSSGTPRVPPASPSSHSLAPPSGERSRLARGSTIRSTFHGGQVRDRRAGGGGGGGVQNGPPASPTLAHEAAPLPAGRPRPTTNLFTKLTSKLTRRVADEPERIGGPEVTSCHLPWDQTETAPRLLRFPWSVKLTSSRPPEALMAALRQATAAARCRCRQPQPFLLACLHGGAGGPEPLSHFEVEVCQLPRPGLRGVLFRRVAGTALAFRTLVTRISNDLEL

MAPKAPK5 = MAPKAPK5 (Homo sapiens, UniProt Q8IW41); assay: biochemical; parameters: species or system HEK293/K-562/placenta mixed human extract; Kinobeads chemoproteomic competition binding, quantified by TMT LC-MS/MS, dose response up to 20 uM
CAMK2G = CAMK2G (Homo sapiens, UniProt Q13555); assay: biochemical; parameters: species or system HEK293/K-562/placenta mixed human extract; Kinobeads chemoproteomic competition binding, quantified by TMT LC-MS/MS, dose response up to 20 uM
RPS6KA4 = RPS6KA4 (Homo sapiens, UniProt O75676); assay: biochemical; parameters: species or system HEK293/K-562/placenta mixed human extract; Kinobeads chemoproteomic competition binding, quantified by TMT LC-MS/MS, dose response up to 20 uM
RPS6KA2 = RPS6KA2 (Homo sapiens, UniProt Q15349); assay: biochemical; parameters: species or system HEK293/K-562/placenta mixed human extract; Kinobeads chemoproteomic competition binding, quantified by TMT LC-MS/MS, dose response up to 20 uM
MAPK1 = MAPK1 (Homo sapiens, UniProt P28482); assay: biochemical; parameters: species or system HEK293/K-562/placenta mixed human extract; Kinobeads chemoproteomic competition binding, quantified by TMT LC-MS/MS, dose response up to 20 uM
Sequence of MAPK1 (P28482 whole entry): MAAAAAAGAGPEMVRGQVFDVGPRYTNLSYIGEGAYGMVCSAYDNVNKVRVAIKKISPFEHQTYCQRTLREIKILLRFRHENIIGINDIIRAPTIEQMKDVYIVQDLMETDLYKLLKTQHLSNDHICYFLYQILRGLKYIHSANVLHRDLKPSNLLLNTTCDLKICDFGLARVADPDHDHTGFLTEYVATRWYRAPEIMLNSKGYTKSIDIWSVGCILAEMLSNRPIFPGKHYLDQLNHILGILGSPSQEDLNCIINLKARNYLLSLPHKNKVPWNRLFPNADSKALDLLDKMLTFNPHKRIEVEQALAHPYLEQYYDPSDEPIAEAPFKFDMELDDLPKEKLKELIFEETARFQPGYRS

FYN = FYN (Homo sapiens, UniProt P06241); assay: biochemical; parameters: species or system HEK293/K-562/placenta mixed human extract; Kinobeads chemoproteomic competition binding, quantified by TMT LC-MS/MS, dose response up to 20 uM
MASTL = MASTL (Homo sapiens, UniProt Q96GX5); assay: biochemical; parameters: species or system HEK293/K-562/placenta mixed human extract; Kinobeads chemoproteomic competition binding, quantified by TMT LC-MS/MS, dose response up to 20 uM
MAP3K13 = MAP3K13 (Homo sapiens, UniProt O43283); assay: biochemical; parameters: species or system HEK293/K-562/placenta mixed human extract; Kinobeads chemoproteomic competition binding, quantified by TMT LC-MS/MS, dose response up to 20 uM
WNK4 = WNK4 (Homo sapiens, UniProt Q96J92); assay: biochemical; parameters: species or system HEK293/K-562/placenta mixed human extract; Kinobeads chemoproteomic competition binding, quantified by TMT LC-MS/MS, dose response up to 20 uM
DAPK1 = DAPK1 (Homo sapiens, UniProt P53355); assay: biochemical; parameters: species or system HEK293/K-562/placenta mixed human extract; Kinobeads chemoproteomic competition binding, quantified by TMT LC-MS/MS, dose response up to 20 uM
STK10 = STK10 (Homo sapiens, UniProt O94804); assay: biochemical; parameters: species or system HEK293/K-562/placenta mixed human extract; Kinobeads chemoproteomic competition binding, quantified by TMT LC-MS/MS, dose response up to 20 uM
STRADA = STRADA (Homo sapiens, UniProt Q7RTN6); assay: biochemical; parameters: species or system HEK293/K-562/placenta mixed human extract; Kinobeads chemoproteomic competition binding, quantified by TMT LC-MS/MS, dose response up to 20 uM
Sequence of STRADA (Q7RTN6 whole entry): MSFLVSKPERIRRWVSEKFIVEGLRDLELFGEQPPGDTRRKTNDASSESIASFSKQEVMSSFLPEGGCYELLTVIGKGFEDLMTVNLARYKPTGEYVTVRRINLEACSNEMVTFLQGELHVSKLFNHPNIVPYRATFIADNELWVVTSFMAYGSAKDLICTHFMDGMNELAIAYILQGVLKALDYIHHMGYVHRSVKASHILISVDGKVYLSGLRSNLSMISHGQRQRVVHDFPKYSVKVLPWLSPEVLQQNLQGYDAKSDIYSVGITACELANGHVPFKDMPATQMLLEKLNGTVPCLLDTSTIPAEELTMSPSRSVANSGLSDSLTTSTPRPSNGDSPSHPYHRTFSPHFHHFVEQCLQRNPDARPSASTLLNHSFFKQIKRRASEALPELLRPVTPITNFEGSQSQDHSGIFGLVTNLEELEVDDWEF

Measured: IC50

COc1nc(N[C@H]2CC[C@H](NS(=O)(=O)CC(C)C)CC2)nc2[nH]nc(N3CCOC[C@H]3C)c12 [compound 39, N-(trans-4-((4-Methoxy-3-((R)-3-methylmorpholino)-1H-pyrazolo[3,4-d]pyrimidin-6-yl)amino)cyclohexyl)-2-methylpropane-1-sulfonamide]
6.2 µM: MAPKAPK5
> 30 µM: hERG
≥ 20 µM: all other assays above

From publication PMC6407917, “Identification of GSK3186899/DDD853651 as a Preclinical Development Candidate for the Treatment of Visceral Leishmaniasis” (Journal of Medicinal Chemistry, 2018)
